The test system of the first test is Hepatocyte spheroids. Kind of test: Cell viability is assessed by cellular ATP assay using CellTiter-Glo Luminescent kit. Viability is expressed as average RLU from biological replicates and normalized to negative control.Toxicity is defined as those with normalized ATP significantly less than 80 percent of the negative control. In kind it is functional, Homo sapiens. On the set-up: unit not given here.
Conditions: not given
For the compound `Cc1cc(Nc2nccc(C)n2)cc(-c2cnc([C@@]3(O)CC[C@H](C(=O)O)C(C)(C)C3)s2)c1` [MRL-SYKi], the Proliferation is given as 0. Consider `CNc1nc(-c2ccc3c(N)n[nH]c3c2)cc(N2C[C@@H](C(=O)NC3CCCCC3)CC[C@H]2C)n1`, for which the Proliferation is given as 0.1604. The same measure, in the same setting: in the case of `Cn1cnc2c(F)c(Nc3ccc(Br)cc3Cl)c(C(=O)NOCCO)cc21` [SELUMETINIB] it was 0.04298. Same read-out and setting: with `Cc1nnc2c3ccccc3c(N[C@@H](C)[C@H](c3ccccc3)N(C)C)nn12` the figure was 0.0435; with `Cc1cc2c(cc1N1C(=O)c3cccc4c(CCCO)ccc(c34)C1=O)n(C)c(=O)n2C`, 0.07854. Same read-out and setting: in the case of `CN(C)[C@H]1CN(C2CCc3cccc(F)c32)C[C@@H]1c1ccc(N2CCN(S(C)(=O)=O)CC2)cc1` (stereo partly specified) it was 0. In the case of `C[C@@H]1CCN(C(=O)CC#N)C[C@@H]1N(C)c1ncnc2[nH]ccc12.O=C(O)CC(O)(CC(=O)O)C(=O)O` [TOFACITINIB CITRATE], the Proliferation came to 0.01527.

For the compound `CC(=O)Nc1c(C(C)=O)c(=O)n(C)c2nc(-c3ccc(Cl)cc3Cl)c(-c3ccc(Cl)cc3)cc12` [NAPHTHYRIDINONE], the Proliferation stood at 0.005874. Consider `COc1ccccc1C(=O)Nc1cc2c(cc1N1CCCC1)n(C)c(=O)n2C`, for which the Proliferation stood at 0.003878. `Nc1cc(N)c(NC(=O)Nc2ccc(C(=O)N[C@@H](CCC(=O)O)C(=O)O)cc2)c(=O)[nH]1`: the Proliferation is listed as 0.01013. In turn, `Cn1c(=O)c(Oc2ccc(F)cc2F)cc2cnc(NC(CCO)CCO)nc21` [PAMAPIMOD] registered a Proliferation of 0.003154. `O=C1c2ccc(Nc3ccc(F)cc3F)cc2CCc2ccc(OC[C@H](O)CO)cc21` [Skepinone-L] returned a Proliferation of 0.2651. In turn, `CN(C)C(=O)Cn1cc(-c2nc([C@@](C)(c3ccc(-c4cnc(N)nc4)cc3)C3CC3)no2)cn1` [BI 665915] had a Proliferation of 0.119. The same measure, in the same setting: with `CC(=O)c1cc(-c2cc(C(=O)NC3CC3)ccc2C)c2ncccn12` the figure was 0.01914; with `Cl.Cl.NC1(c2ccc(-c3nc4ccn5c(=O)[nH]nc5c4cc3-c3ccccc3)cc2)CCC1`, 0.5443; with `Cn1cc(-c2ccc3c(c2)CCN3C(=O)Cc2cccc(C(F)(F)F)c2)c2c(N)ncnc21`, 0.03291. Turning to `O=c1nc(-c2ccccn2)sc2ccccc12` [BTZO-1], the Proliferation is given as 0.08275.

As to `CC(C)c1ccc(Nc2nccc(-c3cnn4ncccc34)n2)cc1` [GW805758X], the Proliferation came out at 0.2702. The same measure, in the same setting: with `O=C(Nc1ccc(I)cc1)N1CCC(n2c(=O)[nH]c3c(Br)cccc32)CC1` the figure was 0.001093.

In turn, `CNCCN1CCC(c2cc(CN(C)C(=O)c3cccc(Oc4ccccc4)c3)ccn2)CC1` had a Proliferation of 0.03291. Same read-out and setting: in the case of `Cc1c(NC(=O)c2ccc(C(C)(C)C)cc2)cccc1-c1cn(C)c(=O)c(Nc2ccc(C(=O)N3CCOCC3)cc2)n1` it was 0.2187; in that of `CCCCNc1ncc(-c2ccc(CN3CCOCC3)cn2)c(N[C@H]2CC[C@H](O)CC2)n1`, 0.01481; in that of `O=C(Nc1ccc2[nH]nc(-c3ccncc3)c2c1)[C@@H]1CCN(CC(=O)N2CCN(c3ccc(-c4ncccn4)cc3)CC2)C1`, 0.03313. `Cc1c(NC(=O)c2cc(C(N)=O)nc3cc(F)ccc23)c(C(F)(F)F)nn1Cc1ccc(C#N)cc1` [BAY-876] showed a Proliferation of 0.01262.

In the case of `CS(=O)(=O)Nc1cc([N+](=O)[O-])ccc1OC1CCCCC1`, the Proliferation is given as 0.6769. As for `CCC(=O)N[C@H]1CC[C@@H](C(=O)N(C)c2ccc(-c3nc4ccccc4o3)cc2)C1` [BI 99179], the Proliferation was 0.7724. Take `COc1cccc(CNC(=O)c2nc3scc(COCc4ccc(C(=O)O)cc4)c3c(=O)[nH]2)c1` [T-26c]: the Proliferation turned out to be 0.5771.

`CSc1ccc(-c2cc3ncnc(SCC(=O)O)c3s2)cc1` displayed a Proliferation of 0.882. Take `O=C(NOC[C@H](O)CO)c1ccc(F)c(F)c1Nc1ccc(I)cc1F` [MIRDAMETINIB]: the Proliferation was found to be 0. Turning to `Nc1nc2[nH]cnc2c(=S)[nH]1` [THIOGUANINE], the Proliferation stood at 0.05104. `O=C(N[C@@H]1CCOC1)C1CCN(c2nc3cc(Cl)c(Cl)cc3n2-c2ccc3ccccc3n2)CC1` gave a Proliferation of 0.003884.

Compound `CNC(=O)Nc1ccc2c(c1)CC[C@@]21OC(=O)N(CC(=O)N(Cc2ccc(F)cc2)[C@@H](C)C(F)(F)F)C1=O` [A-485] gave a Proliferation of 0.02668. Still for that read-out and setting: with `CC(=O)N1CCC(c2ccc(C(=O)NC(=N)N)cc2C(F)(F)F)CC1` [BI 9627] the figure was 0.09817. The same measure, in the same setting: in the case of `NC(=O)c1ccc(N(C(N)=O)c2c(F)cccc2F)nc1-c1ccc(F)cc1F` [VX-702] it was 0.02591. The compound `CC(C)(C)S(=O)(=O)c1cc2c(Nc3ccc4scnc4c3)ncnc2cc1OCCO` yielded a Proliferation of 0.5541. Compound `Nc1ncnc2c1ccn2[C@@H]1O[C@H]([C@H](O)c2ccccc2)[C@@H](O)[C@H]1O` gave a Proliferation of 0.1599.

`Cn1cnc2c1c(=O)n(CCCn1c(=O)c3c(ncn3C)n(C)c1=O)c(=O)n2C` [BISDIONIN C]: the Proliferation was 0.03665. Same read-out and setting: in the case of `CN(C)C(=O)/C(C#N)=C/c1ccc(-c2nc3cnc4[nH]ccc4c3n2C2CCCCC2)o1` it was 0.07463; in that of `COc1ccccc1C(=O)Nc1cc2c(cc1N1CCNCC1C)n(C)c(=O)n2C` (stereo unspecified), 0.1835. Turning to `CCOCCn1cc(C(=O)Nc2ccc(-n3nc(-c4cccnc4)cc3C(F)(F)F)cn2)ccc1=O` [BI 1935], the Proliferation is 0.3766. On the same count and under the same terms, in the case of `CNC(=O)c1ccc(Nc2ncc(C(F)(F)F)c(NCc3nccnc3N(C)S(C)(=O)=O)n2)cc1` [DEFACTINIB] it was 0.1091; in that of `CCN(CC)S(=O)(=O)Nc1cccc(-c2ccc3c(NC(=O)C4CC4)n[nH]c3c2)c1`, 0.0004; in that of `CC(=O)C1=C(C)N(c2cccc(C(F)(F)F)c2)C(=O)N[C@@H]1c1ccc(C#N)nc1` [BAY-678], 0.03291. The same measure, in the same setting: with `COc1cc(Nc2ccnc3ccc(Br)cc23)cc(OC)c1OC` the figure was 0.5391.

The same test, now with this note: Concentration range 1nM-1uM.
On to `Cc1sc2c(c1C)C(c1ccc(Cl)cc1)=NC(CC(=O)OC(C)(C)C)c1nnc(C)n1-2` (stereo unspecified), for which the Proliferation came to 0.001662.

As to `Cl.Cl.c1ccc([C@@H]2C[C@H]2NC2CCNCC2)cc1`, the Proliferation was determined as 0.6494.

Still in this test, the particulars now being: Concentration range 3nM-3uM.
The compound `COc1ccc(CCc2nc3cc(-c4c(C)noc4C)ccc3n2C[C@H](C)N2CCOCC2)cc1Cl` registered a Proliferation of 0.2022.

Staying with this test, now noted: Concentration range 5nM-5uM.
`COc1cc2c(NC3CCN(C(C)C)CC3)nc(N3CCC(F)(F)CC3)nc2cc1OCCCN1CCCC1` returned a Proliferation of 0.008491. Still for that read-out and setting: with `CCC(=O)N1CCOc2c(cc(-c3ccc(OC)c(OC)c3)cc2OCC2CCCN(C)C2)C1` (stereo unspecified) the figure was 0.8195.

As for `COc1cc2c(NC3CCN(C(C)C)CC3)nc(C3CCCCC3)nc2cc1OCCCN1CCCC1`, the Proliferation came out at 0.05128.

The compound `COc1cc2c(cc1NS(=O)(=O)c1ccc(Br)cc1C)n(C)c(=O)n2C` came in with a Proliferation of 0.003884. The compound `CCCc1cc(C)[nH]c(=O)c1CNC(=O)c1cc(-c2ccnc(N3CCN(C)CC3)c2)cc2c1cnn2C(C)C` had a Proliferation of 0.009822.

The test is the same for the next values; noted with them: Concentration range 10nM-10uM.
On to `CC(C)Oc1ccc(-c2c[nH]cc2CN(C)CCN)cc1`, for which the Proliferation turned out to be 0.2793. The same measure, in the same setting: with `Clc1cc2c(NC3CCCC3)nnc(-c3ccncc3)c2cc1Cl` the figure was 0.02485; with `Cc1cc(=O)n(C)c2cc(N3C(=O)CC[C@H](NS(=O)(=O)CC(C)C)[C@H]3c3ccc(Cl)cc3)ccc12`, 0.2341.

Turning to `Cl.O=C([C@@H](Cc1cccc(C(F)(F)F)c1)NS(=O)(=O)c1cc(F)c2c(c1)CCNC2)N1CCCC1`, the Proliferation is 0.01564.

`O=C(NCC(=O)N1CCCC1)Nc1ccc2cnccc2c1`: the Proliferation is 0.06734. As for `CC(C)N(CCCNC(=O)Nc1ccc(C(C)(C)C)cc1)C[C@H]1O[C@@H](n2cc(Br)c3c(N)ncnc32)[C@H](O)[C@@H]1O`, the Proliferation is listed as 0.01234. With `Cc1cc2nc(N3CCC(C(=O)NC4CCCC4)CC3)n(C(C)C)c2cc1C`, the Proliferation stood at 0.1009. Same read-out and setting: in the case of `COc1ccccc1S(=O)(=O)Nc1ccc2c(c1)CN(C)C(=O)N2` it was 0.003099; in that of `COc1cc(C#N)ccc1S(=O)(=O)Nc1ccc2c(c1)cc(C)c(=O)n2C`, 0.0004. Same read-out and setting: in the case of `CCn1cc(-c2cccc(C(F)(F)F)c2)c2sc(C(=N)NC3CCS(=O)(=O)CC3)cc2c1=O` it was 0.05754; in that of `CCN(C(=O)CO)[C@H]1CN(/C(=N\C#N)Nc2cccc(OC(F)F)c2)N=C1c1ccc(Cl)c(Cl)c1`, 0.05466; in that of `O=C(/C=C/N1C[C@H]2C[C@@H]1CN2c1ccccn1)c1ccccc1O`, 0.02966. The same measure, in the same setting: with `CCCOc1ccn2c(C(C)=O)cc(-c3ccccc3S(C)(=O)=O)c2c1` the figure was 0.6349; with `Cc1cn(CCN2CCN(c3ccccc3-c3cc(C#N)cc(C(=O)NCCCN4CCCC4)c3)CC2)c2ccccc12`, 0.05285.

The values are drawn from ChEMBL document CHEMBL5724564, “Patient-derived NASH model to assess the effects of chemical probes on hepatocyte regenerations” (2024).
